According to US20260193254A1, “2-OXOQUINAZOLINE CRYSTALLINE FORMS” (IDEAYA Biosciences, Inc., priority 2022, published 2026):

Key:
Type in all cases: physicochemical
[1] = Variable humidity and temperature XRPD experiments
[2] = Equilibration with solvents at 25° C. for 2 weeks; settings: equilibration at 25° C. for 2 weeks
Description: Obtained suspension was filtered. The solid part (wet cake) was investigated by XRPD. When differences were observed, additional investigations were performed (e.g. DSC, TGA etc.).

[3] = Behavior under compression; settings: 2 Mpa/2 min, hydraulic press
Description: XRPD characterization was performed to investigate polymorphic behavior under compression.

Compound | XRPD (XRPD method 2) ([1]; VT14 25° C./37% RH (initial)) | XRPD (XRPD method 2) ([1]; VT15 50° C./37% RH (10 min)) | XRPD (XRPD method 2) ([1]; VT17 250° C./37% RH (10 min)) | Crystalline Form ([2]; Acetone (63 mg/mL)) | Crystalline Form ([2]; Acetone/water = 1/1 (v/v) (63 mg/mL)) | Crystalline Form ([2]; Acetonitrile/water = 1/1 (v/v) (62 mg/mL)) | Crystalline Form ([2]; Ethanol/water = 1/1 (v/v) (64 mg/mL)) | Crystalline Form ([2]; Methanol (65 mg/mL)) | Crystalline Form ([2]; Methanol/water = 1/1 (v/v) (64 mg/mL)) | Crystalline Form ([2]; t-Butyl methyl ether (65 mg/mL)) | Crystalline Form ([2]; t-Butyl methyl ether/water = 95/5(v/v) (63 mg/mL)) | XRPD after compression [3]
Nc1nc(=O)n(-c2ccccc2Cl)c2nc(C(F)(F)F)ccc12 [Form A, 4-Amino-1-(2-chlorophenyl)-7-(trifluoromethyl)pyrido[2,3-d]pyrimidin-2(1H)-one] | Form A | Form A | Form U | – | – | – | – | – | – | – | – | –
Nc1nc(=O)n(-c2ccccc2Cl)c2nc(C(F)(F)F)ccc12 [solid state Form V, 4-Amino-1-(2-chlorophenyl)-7-(trifluoromethyl)pyrido[2,3-d]pyrimidin-2(1H)-one] | – | – | – | Form G | Form G | Form A | Form C (hemi-hydrate) | Form C (hemi-hydrate) | Form E (hemi-hydrate) | Form H (MTBE solvate) | Form H (MTBE solvate) | No form change
